Reference: ChEMBL document CHEMBL1129258, “Synthesis and structure-activity relationships of 2-pyridones: a novel series of potent DNA gyrase inhibitors as antibacterial agents” (J Med Chem, 1996)
Values after ≈ are worked out from the molar mass of the structure shown.

Experiments:
[1] = Maximum plasma concentration in rats after an oral dose of 5 mg/kg; conditions: rat
[2] = tested on: Enterococcus faecalis; assay: Inhibitory activity against enterococcus faecalis Van B; assay type: functional
[3] = target: T1, DNA gyrase (Escherichia coli) (UniProt P0AES6+P0AES4); assay: In vivo efficacy against Escherichia coli JUHL after oral administration; assay type: functional, organism-based; conditions: Escherichia coli K-12
[4] = target: T1, DNA gyrase (Escherichia coli); assay: In vivo efficacy against Escherichia coli JUHL by subcutaneous administration; assay type: functional, organism-based; conditions: Escherichia coli K-12
[5] = target: T1, DNA gyrase (Escherichia coli); assay: In vitro antibacterial activity against gram-negative organism […] ATCC 13048; assay type: functional; conditions: Enterobacter aerogenes
[6] = tested on: Enterococcus faecium; assay: Inhibitory activity against enterococcus faecium Van A; assay type: functional
[7] = target: T1, DNA gyrase (Escherichia coli); assay: In vitro antibacterial against gram-negative organism Escherichia coli JUHL; assay type: functional; conditions: Escherichia coli K-12
[8] = target: T1, DNA gyrase (Escherichia coli); assay: In vitro antibacterial activity against gram-negative organism Klebsiella pneumoniae ATCC 8045; assay type: functional
[9] = In vivo efficacy against Pseudomonas aeruginosa 5007 after subcutaneous administration; assay type: functional; conditions: Pseudomonas aeruginosa, sc; read-out: ED50
[10] = target: T1, DNA gyrase (Escherichia coli); assay: In vitro antibacterial activity against gram-negative organism Prov. stuartii CMX-640; assay type: functional; conditions: Providencia stuartii
[11] = In vitro antibacterial activity against gram-negative organism Pseudomonas aeruginosa 5007; assay type: functional; conditions: Pseudomonas aeruginosa; read-out: MIC
[12] = In vitro antibacterial activity against gram-negative organism Pseudomonas aeruginosa DPHD-2862; assay type: functional; conditions: Pseudomonas aeruginosa; read-out: MIC
[13] = tested on: Streptococcus pneumoniae; assay: (§1) In vivo efficacy against Strep. administration; assay type: functional
[14] = target: T2, DNA gyrase (Staphylococcus aureus) (UniProt P0A0K8+P20831); assay: In vitro antibacterial activity against gram-positive organism Staphylococcus aureus 1775; assay type: functional
[15] = target: T2, DNA gyrase (Staphylococcus aureus); assay: In vitro antibacterial activity against gram-positive organism Staphylococcus aureus ATCC 6538p; assay type: functional
[16] = target: T2, DNA gyrase (Staphylococcus aureus); assay: In vitro antibacterial activity against gram-positive organism Staphylococcus aureus NCTC-10649M; assay type: functional
[17] = target: T1, DNA gyrase (Escherichia coli); assay: In vitro antibacterial activity against gram-positive organism Streptococcus bovis A-5169; assay type: functional; conditions: Streptococcus equinus
[18] = target: T2, DNA gyrase (Staphylococcus aureus); assay: In vivo efficacy against Staphylococcus aureus NCTC-10649M after oral administration; assay type: functional, organism-based
[19] = target: T2, DNA gyrase (Staphylococcus aureus); assay: In vivo efficacy against Staphylococcus aureus NCTC-10649M after subcutaneous administration; assay type: functional, organism-based
[20] = tested on: Streptococcus pyogenes; assay: In vitro antibacterial activity against gram-positive organism Streptococcus pyogenes EES61; assay type: functional; conditions: Streptococcus pyogenes; read-out: MIC
[21] = target: T1, DNA gyrase (Escherichia coli); assay: In vitro antibacterial activity against gram-positive organism Enterococcus faecium ATCC 8043; assay type: functional
[22] = tested on: Streptococcus pneumoniae; assay: as §1; assay type: functional; remark: listed apart in the source
[23] = target: T1, DNA gyrase (Escherichia coli); conditions: Escherichia coli K-12
Description: Concentration which causes 50% of the gyrase (Escherichia coli H560)-mediated maximal DNA cleavage.

[24] = in vivo; conditions: rat, po, 5 mg/kg
Description: Oral bioavailability in rat (dose 5 mg/kg)

[25] = in vivo; conditions: rat, plasma, po, 5 mg/kg
[26] = tested on: Pseudomonas aeruginosa; assay: In vivo efficacy against Pseudomonas aeruginosa 5007 following p.o. administration.
[27] = physchem; conditions: phosphate buffer, pH 7.4
Description: Aqueous solubility in pH 7.4 phosphate buffer (0.05 M) at 37 degree C

[28] = tested on: Escherichia coli; assay: In vivo efficacy against Escherichia coli JUHL by orally administered.; assay type: functional; conditions: po
[29] = tested on: Streptococcus pneumoniae; assay: In vivo efficacy against Strep. administered; assay type: functional
[30] = Streptococcus pneumoniae, read-out: ED50

T2 sequence (P0A0K8 2-644 limits assumed): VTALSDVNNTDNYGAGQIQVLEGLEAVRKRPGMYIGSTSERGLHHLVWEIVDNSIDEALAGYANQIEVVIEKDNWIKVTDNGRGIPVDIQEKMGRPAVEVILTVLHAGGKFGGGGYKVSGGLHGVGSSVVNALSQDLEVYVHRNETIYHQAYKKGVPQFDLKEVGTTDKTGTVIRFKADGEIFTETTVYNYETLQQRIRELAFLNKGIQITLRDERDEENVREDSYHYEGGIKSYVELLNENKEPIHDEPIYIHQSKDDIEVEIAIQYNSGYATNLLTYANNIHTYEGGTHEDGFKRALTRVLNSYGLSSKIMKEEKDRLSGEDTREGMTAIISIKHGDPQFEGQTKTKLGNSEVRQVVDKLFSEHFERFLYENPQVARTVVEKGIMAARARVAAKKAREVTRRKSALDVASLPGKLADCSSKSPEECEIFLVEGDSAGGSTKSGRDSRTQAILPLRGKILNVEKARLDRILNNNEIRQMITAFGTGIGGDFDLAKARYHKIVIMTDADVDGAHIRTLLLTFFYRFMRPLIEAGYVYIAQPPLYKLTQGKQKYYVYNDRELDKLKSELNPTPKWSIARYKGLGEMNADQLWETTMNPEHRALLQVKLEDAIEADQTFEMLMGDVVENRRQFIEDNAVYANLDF
T2 sequence (P20831 whole entry partner): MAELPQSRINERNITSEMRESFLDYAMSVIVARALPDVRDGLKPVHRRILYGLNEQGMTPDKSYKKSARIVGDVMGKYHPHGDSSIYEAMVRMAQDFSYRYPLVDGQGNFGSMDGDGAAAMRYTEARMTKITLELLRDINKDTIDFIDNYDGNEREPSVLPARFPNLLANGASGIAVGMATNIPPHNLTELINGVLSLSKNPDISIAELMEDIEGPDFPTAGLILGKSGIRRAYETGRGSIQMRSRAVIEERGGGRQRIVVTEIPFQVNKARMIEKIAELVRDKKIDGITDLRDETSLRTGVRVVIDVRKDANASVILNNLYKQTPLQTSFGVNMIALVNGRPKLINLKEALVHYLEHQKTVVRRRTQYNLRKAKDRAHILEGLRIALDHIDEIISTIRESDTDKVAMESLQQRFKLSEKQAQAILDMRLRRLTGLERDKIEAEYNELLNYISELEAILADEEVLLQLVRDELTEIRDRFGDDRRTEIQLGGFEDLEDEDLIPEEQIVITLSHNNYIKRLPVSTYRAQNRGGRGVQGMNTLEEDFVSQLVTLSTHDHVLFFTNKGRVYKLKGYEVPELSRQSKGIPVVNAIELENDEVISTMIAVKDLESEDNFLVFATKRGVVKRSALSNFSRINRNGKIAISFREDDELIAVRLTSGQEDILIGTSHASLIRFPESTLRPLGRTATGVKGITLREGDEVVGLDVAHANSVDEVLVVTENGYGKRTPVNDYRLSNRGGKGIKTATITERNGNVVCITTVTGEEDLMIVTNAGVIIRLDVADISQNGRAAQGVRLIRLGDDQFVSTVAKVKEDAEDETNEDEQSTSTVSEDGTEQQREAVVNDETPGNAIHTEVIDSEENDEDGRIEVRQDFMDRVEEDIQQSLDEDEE

| Compound | ED50 [3] [mg/kg] | ED50 [4] [mg/kg] | MIC [5] [µg/mL] | MIC [7] [µg/mL] | MIC [8] [µg/mL] | ED50 [9] [mg/kg] | MIC [10] [µg/mL] | MIC [11] [µg/mL] | MIC [12] [µg/mL] | ED50 [13] [mg/kg] | MIC [14] [µg/mL] | MIC [15] [µg/mL] | MIC [16] [µg/mL] | MIC [17] [µg/mL] | ED50 [18] [mg/kg] | ED50 [19] [mg/kg] | MIC [20] [µg/mL] | MIC [21] [µg/mL] | CC50 [23] [µg/mL] | ED50 [26] [mg/kg] | other results |
| --- | --- | --- | --- | --- | --- | --- | --- | --- | --- | --- | --- | --- | --- | --- | --- | --- | --- | --- | --- | --- | --- |
| Cc1c(N2CC[C@H](N)C2)c(F)cn2c(=O)c(C(=O)O)cc(C3CC3)c12 [ABT-719] | 0.6 | 0.1 | 0.005 (≈ 0.0145 µM) | 0.002 (≈ 0.00579 µM) | 0.005 (≈ 0.0145 µM) | 1.9 | 0.2 (≈ 0.579 µM) | 0.05 (≈ 0.145 µM) | 0.78 (≈ 2.26 µM) | 1.6 | 0.78 (≈ 2.26 µM) | 0.01 (≈ 0.029 µM) | 0.01 (≈ 0.029 µM) | 0.02 (≈ 0.0579 µM) | 3.4 | 0.6 | 0.02 (≈ 0.0579 µM) | 0.02 (≈ 0.0579 µM) | 0.03 (≈ 0.0869 µM) | 14.5 | Cmax [1]: 270 ng/mL; MIC [2]: 0.03 µg/mL (≈ 0.0869 µM); MIC [6]: 0.25 µg/mL (≈ 0.724 µM); ED50 [22, 30]: 5.3 mg/kg; bioavailability [24]: 32%; half-life [25]: 1.2 h |
| Cc1c(N2C[C@@H](N)C[C@@H]2C)c(F)cn2c(=O)c(C(=O)O)cc(C3CC3)c12 | – | – | 0.05 (≈ 0.139 µM) | 0.005 (≈ 0.0139 µM) | 0.01 (≈ 0.0278 µM) | – | 0.78 (≈ 2.17 µM) | 0.2 (≈ 0.556 µM) | 3.1 (≈ 8.63 µM) | – | 1.56 (≈ 4.34 µM) | 0.01 (≈ 0.0278 µM) | 0.01 (≈ 0.0278 µM) | 0.05 (≈ 0.139 µM) | – | – | 0.05 (≈ 0.139 µM) | 0.1 (≈ 0.278 µM) | 0.2 (≈ 0.556 µM) | – | Cmax [1]: 740 ng/mL; bioavailability [24]: 44%; half-life [25]: 1.6 h; solubility [27]: 70 µg/mL (≈ 195 µM) |
| CNC1CCN(c2c(F)cn3c(=O)c(C(=O)O)cc(C4CC4)c3c2C)C1 (stereo unspecified) | – | 0.7 | 0.02 (≈ 0.0556 µM) | 0.005 (≈ 0.0139 µM) | 0.005 (≈ 0.0139 µM) | 2.8 | 0.39 (≈ 1.09 µM) | 0.2 (≈ 0.556 µM) | 1.56 (≈ 4.34 µM) | – | 1.56 (≈ 4.34 µM) | 0.02 (≈ 0.0556 µM) | 0.02 (≈ 0.0556 µM) | 0.1 (≈ 0.278 µM) | < 3.1 | 0.9 | 0.05 (≈ 0.139 µM) | 0.1 (≈ 0.278 µM) | 0.08 (≈ 0.223 µM) | 7.2 | MIC [2]: 0.06 µg/mL (≈ 0.167 µM); ED50 [28]: 1.1 mg/kg; MIC [6]: 0.5 µg/mL (≈ 1.39 µM) |
| Cc1c(N2CC[C@H](O)C2)c(F)cn2c(=O)c(C(=O)O)cc(C3CC3)c12 | – | – | 0.1 (≈ 0.289 µM) | 0.02 (≈ 0.0577 µM) | 0.01 (≈ 0.0289 µM) | – | 0.39 (≈ 1.13 µM) | 0.39 (≈ 1.13 µM) | 3.1 (≈ 8.95 µM) | > 2 | 0.39 (≈ 1.13 µM) | 0.005 (≈ 0.0144 µM) | 0.005 (≈ 0.0144 µM) | 0.1 (≈ 0.289 µM) | 5.3 | 1.5 | – | 0.05 (≈ 0.144 µM) | – | – | ED50 [22]: > 10 mg/kg |
| Cc1c(N2C[C@@H](C)N[C@@H](C)C2)c(F)cn2c(=O)c(C(=O)O)cc(C3CC3)c12 | 2.1 | 1.3 | 0.1 (≈ 0.268 µM) | 0.02 (≈ 0.0536 µM) | 0.02 (≈ 0.0536 µM) | > 8 | 3.1 (≈ 8.3 µM) | 1.56 (≈ 4.18 µM) | 12.5 (≈ 33.5 µM) | – | 6.2 (≈ 16.6 µM) | 0.1 (≈ 0.268 µM) | 0.1 (≈ 0.268 µM) | 0.78 (≈ 2.09 µM) | 4.8 | 4.4 | 0.39 (≈ 1.04 µM) | 0.39 (≈ 1.04 µM) | 1.8 (≈ 4.82 µM) | 12.7 | ED50 [29]: > 8 mg/kg; ED50 [22]: 49.4 mg/kg |
| Cc1c(N2CCC(N)C2)c(F)cn2c(=O)c(C(=O)O)cc(C3CC3)c12 (stereo unspecified) | < 0.3 | 0.4 | 0.005 (≈ 0.0145 µM) | 0.002 (≈ 0.00579 µM) | 0.002 (≈ 0.00579 µM) | 0.5 | 0.2 (≈ 0.579 µM) | 0.05 (≈ 0.145 µM) | 0.78 (≈ 2.26 µM) | 6.2 | 1.56 (≈ 4.52 µM) | 0.01 (≈ 0.029 µM) | 0.01 (≈ 0.029 µM) | 0.02 (≈ 0.0579 µM) | 4.1 | 1 | 0.02 (≈ 0.0579 µM) | 0.02 (≈ 0.0579 µM) | 0.05 (≈ 0.145 µM) | 4.6 | ED50 [22, 30]: 12.5 mg/kg |
